Measured values from PubChem BioAssay (NCI).
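Tested at 5 concentrations; 48 h exposure; 96-well plates; endpoints linearly interpolated, else capped at highest concentration. TGI: total growth inhibition.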

system: MDA-MB-435; test: NCI-60 cell line screen, 48 h

Compound | TGI [µM]
Cc1nc(N)c(N2CCNCC2)c(=O)[nH]1 | > 100
CC1=C2C3=C(C)C(=O)C(C)(C)CC[C@@]3(C)[C@]2(C)CCC(C)(C)C1=O | > 100
Brc1ccc2c(-c3nc(-c4c[nH]c5ccc(Br)cc45)cs3)c[nH]c2c1 | 18.9
COc1ccc(OC)c2c1C(=O)C(Cl)=C(N1CCN(CCOCCO)CC1)C2=O | 27.9
CCC1c2[nH]c3ccccc3c2C[C@H]2C(=O)NC(CCC(=O)OC(C)(C)C)C(=O)N12 (stereo not given in full) | > 100
CCOC(=O)NC(Nc1ccc(S(=O)(=O)Nc2ncccn2)cc1)(C(=O)OCC)C(F)(F)F (stereo not given) | > 100
CCOC(=O)C(Cl)(NC(=O)c1ccc(F)cc1)C(F)(F)F (stereo not given) | > 100
COc1ccccc1N1C(=O)/C(=C\c2cccc(Oc3ccccc3)c2)SC1c1ccccc1 (stereo not given) | > 100
Cc1ccc(S(=O)(=O)OC2C3OC(C)(C)OC3OC2C(c2cc(O)c3c(c2O)C(=O)c2ccccc2C3=O)c2cc(O)c3c(c2O)C(=O)c2ccccc2C3=O)cc1 (stereo not given) | > 10
N#Cc1nc(COCCOCc2ccccc2)oc1N | > 100
CC/C(=N/O)c1ccc(Br)s1 | > 100
O=C(CCc1ccc(O)cc1)NCCc1ccc(O)cc1 | > 100
CCOC(=O)N/N=C(/N)Cc1ccccc1 | > 100
CC(=O)NCc1nc(C#N)c(N)o1 | > 100
O=P(O)(O)CN1CCN(CP(=O)(O)O)CCN(CP(=O)(O)O)CCN(CP(=O)(O)O)CC1 | > 100
O=C1C(Br)=CC2(C=C1Br)CCN=c1c(O)c3c(c(O)c12)=NC=N3 | 23.4
O=C1SCC(O)=C1/C=N/Nc1nc2ccccc2o1 | > 100
Clc1cccc(Cl)c1C1SCC2=Nc3ccccc3CN21 (stereo not given) | > 100
NC(N)=N/N=C/c1c(Cl)nc2sccn12 | > 100
S=C1Cc2c([nH]c3ccccc23)-c2ccccc2N1 | > 100

system: NCI/ADR-RES ovarian; test: NCI-60 cell line screen, 48 h

Compound | TGI [µM]
Cc1nc(N)c(N2CCNCC2)c(=O)[nH]1 | > 100
CC1=C2C3=C(C)C(=O)C(C)(C)CC[C@@]3(C)[C@]2(C)CCC(C)(C)C1=O | > 100
Brc1ccc2c(-c3nc(-c4c[nH]c5ccc(Br)cc45)cs3)c[nH]c2c1 | 18.1
COc1ccc(OC)c2c1C(=O)C(Cl)=C(N1CCN(CCOCCO)CC1)C2=O | 59
CCC1c2[nH]c3ccccc3c2C[C@H]2C(=O)NC(CCC(=O)OC(C)(C)C)C(=O)N12 (stereo not given in full) | > 100
CCOC(=O)NC(Nc1ccc(S(=O)(=O)Nc2ncccn2)cc1)(C(=O)OCC)C(F)(F)F (stereo not given) | > 100
CCOC(=O)C(Cl)(NC(=O)c1ccc(F)cc1)C(F)(F)F (stereo not given) | > 100
COc1ccccc1N1C(=O)/C(=C\c2cccc(Oc3ccccc3)c2)SC1c1ccccc1 (stereo not given) | > 100
Cc1ccc(S(=O)(=O)OC2C3OC(C)(C)OC3OC2C(c2cc(O)c3c(c2O)C(=O)c2ccccc2C3=O)c2cc(O)c3c(c2O)C(=O)c2ccccc2C3=O)cc1 (stereo not given) | > 10
N#Cc1nc(COCCOCc2ccccc2)oc1N | > 100
CC/C(=N/O)c1ccc(Br)s1 | > 100
O=C(CCc1ccc(O)cc1)NCCc1ccc(O)cc1 | > 100
CCOC(=O)N/N=C(/N)Cc1ccccc1 | > 100
CC(=O)NCc1nc(C#N)c(N)o1 | > 100
O=P(O)(O)CN1CCN(CP(=O)(O)O)CCN(CP(=O)(O)O)CCN(CP(=O)(O)O)CC1 | > 100
O=C1C(Br)=CC2(C=C1Br)CCN=c1c(O)c3c(c(O)c12)=NC=N3 | 52.9
O=C1SCC(O)=C1/C=N/Nc1nc2ccccc2o1 | 43.3
Clc1cccc(Cl)c1C1SCC2=Nc3ccccc3CN21 (stereo not given) | 40
NC(N)=N/N=C/c1c(Cl)nc2sccn12 | > 100
S=C1Cc2c([nH]c3ccccc23)-c2ccccc2N1 | > 100

system: T-47D breast; test: NCI-60 cell line screen, 48 h

Compound | TGI [µM]
Cc1nc(N)c(N2CCNCC2)c(=O)[nH]1 | > 100
CC1=C2C3=C(C)C(=O)C(C)(C)CC[C@@]3(C)[C@]2(C)CCC(C)(C)C1=O | > 100
Brc1ccc2c(-c3nc(-c4c[nH]c5ccc(Br)cc45)cs3)c[nH]c2c1 | 31.9
COc1ccc(OC)c2c1C(=O)C(Cl)=C(N1CCN(CCOCCO)CC1)C2=O | 13.1
CCC1c2[nH]c3ccccc3c2C[C@H]2C(=O)NC(CCC(=O)OC(C)(C)C)C(=O)N12 (stereo not given in full) | > 100
CCOC(=O)NC(Nc1ccc(S(=O)(=O)Nc2ncccn2)cc1)(C(=O)OCC)C(F)(F)F (stereo not given) | > 100
CCOC(=O)C(Cl)(NC(=O)c1ccc(F)cc1)C(F)(F)F (stereo not given) | > 100
COc1ccccc1N1C(=O)/C(=C\c2cccc(Oc3ccccc3)c2)SC1c1ccccc1 (stereo not given) | > 100
Cc1ccc(S(=O)(=O)OC2C3OC(C)(C)OC3OC2C(c2cc(O)c3c(c2O)C(=O)c2ccccc2C3=O)c2cc(O)c3c(c2O)C(=O)c2ccccc2C3=O)cc1 (stereo not given) | > 10
N#Cc1nc(COCCOCc2ccccc2)oc1N | > 100
CC/C(=N/O)c1ccc(Br)s1 | > 100
O=C(CCc1ccc(O)cc1)NCCc1ccc(O)cc1 | > 100
CCOC(=O)N/N=C(/N)Cc1ccccc1 | > 100
CC(=O)NCc1nc(C#N)c(N)o1 | > 100
O=P(O)(O)CN1CCN(CP(=O)(O)O)CCN(CP(=O)(O)O)CCN(CP(=O)(O)O)CC1 | > 100
O=C1C(Br)=CC2(C=C1Br)CCN=c1c(O)c3c(c(O)c12)=NC=N3 | 33.7
O=C1SCC(O)=C1/C=N/Nc1nc2ccccc2o1 | 54.7
Clc1cccc(Cl)c1C1SCC2=Nc3ccccc3CN21 (stereo not given) | 85.1
NC(N)=N/N=C/c1c(Cl)nc2sccn12 | > 100
S=C1Cc2c([nH]c3ccccc23)-c2ccccc2N1 | > 100

system: IGROV1 ovarian; test: NCI-60 cell line screen, 48 h

Compound | TGI [µM]
CC1=C2C3=C(C)C(=O)C(C)(C)CC[C@@]3(C)[C@]2(C)CCC(C)(C)C1=O | > 100
Brc1ccc2c(-c3nc(-c4c[nH]c5ccc(Br)cc45)cs3)c[nH]c2c1 | 16.9
CCC1c2[nH]c3ccccc3c2C[C@H]2C(=O)NC(CCC(=O)OC(C)(C)C)C(=O)N12 (stereo not given in full) | > 100
CCOC(=O)NC(Nc1ccc(S(=O)(=O)Nc2ncccn2)cc1)(C(=O)OCC)C(F)(F)F (stereo not given) | > 100
CCOC(=O)C(Cl)(NC(=O)c1ccc(F)cc1)C(F)(F)F (stereo not given) | > 100
COc1ccccc1N1C(=O)/C(=C\c2cccc(Oc3ccccc3)c2)SC1c1ccccc1 (stereo not given) | > 100
Cc1ccc(S(=O)(=O)OC2C3OC(C)(C)OC3OC2C(c2cc(O)c3c(c2O)C(=O)c2ccccc2C3=O)c2cc(O)c3c(c2O)C(=O)c2ccccc2C3=O)cc1 (stereo not given) | > 10
N#Cc1nc(COCCOCc2ccccc2)oc1N | > 100
CC/C(=N/O)c1ccc(Br)s1 | > 100
O=C(CCc1ccc(O)cc1)NCCc1ccc(O)cc1 | > 100
CCOC(=O)N/N=C(/N)Cc1ccccc1 | > 100
CC(=O)NCc1nc(C#N)c(N)o1 | > 100
O=P(O)(O)CN1CCN(CP(=O)(O)O)CCN(CP(=O)(O)O)CCN(CP(=O)(O)O)CC1 | > 100
Clc1cccc(Cl)c1C1SCC2=Nc3ccccc3CN21 (stereo not given) | 62.5
NC(N)=N/N=C/c1c(Cl)nc2sccn12 | > 100
S=C1Cc2c([nH]c3ccccc23)-c2ccccc2N1 | > 100

system: SK-MEL-5 melanoma; test: NCI-60 cell line screen, 48 h

Compound | TGI [µM]
CC1=C2C3=C(C)C(=O)C(C)(C)CC[C@@]3(C)[C@]2(C)CCC(C)(C)C1=O | > 100
Brc1ccc2c(-c3nc(-c4c[nH]c5ccc(Br)cc45)cs3)c[nH]c2c1 | 12.3
COc1ccc(OC)c2c1C(=O)C(Cl)=C(N1CCN(CCOCCO)CC1)C2=O | 31.3
CCC1c2[nH]c3ccccc3c2C[C@H]2C(=O)NC(CCC(=O)OC(C)(C)C)C(=O)N12 (stereo not given in full) | > 100
CCOC(=O)NC(Nc1ccc(S(=O)(=O)Nc2ncccn2)cc1)(C(=O)OCC)C(F)(F)F (stereo not given) | > 100
CCOC(=O)C(Cl)(NC(=O)c1ccc(F)cc1)C(F)(F)F (stereo not given) | > 100
COc1ccccc1N1C(=O)/C(=C\c2cccc(Oc3ccccc3)c2)SC1c1ccccc1 (stereo not given) | 32.8
Cc1ccc(S(=O)(=O)OC2C3OC(C)(C)OC3OC2C(c2cc(O)c3c(c2O)C(=O)c2ccccc2C3=O)c2cc(O)c3c(c2O)C(=O)c2ccccc2C3=O)cc1 (stereo not given) | > 10
N#Cc1nc(COCCOCc2ccccc2)oc1N | > 100
CC/C(=N/O)c1ccc(Br)s1 | > 100
O=C(CCc1ccc(O)cc1)NCCc1ccc(O)cc1 | > 100
CCOC(=O)N/N=C(/N)Cc1ccccc1 | > 100
O=C1C(Br)=CC2(C=C1Br)CCN=c1c(O)c3c(c(O)c12)=NC=N3 | 23.4
O=C1SCC(O)=C1/C=N/Nc1nc2ccccc2o1 | 63.9
